Consider 14 substances from patent publication US20260072027A1, “Peptides And Method” (Queen Mary University of London, priority 2022, published 2026).

Where no end group is shown, it is not given here. [ ]: non-standard residue; d: D form. Dopa = N[C@@H](Cc1ccc(O)c(O)c1)C(=O)O; Cya = N[C@@H](CS(=O)(=O)O)C(=O)O

The subject of assay [1] is serum IgG autoantibodies. The experiment in a line: ELISA for autoantibody detection: serum antibody binding to native and oxPTM insulin peptides. Also noted: species or system human. The settings on record: for % binders, Healthy controls / Mean ± SEM (absorbance, OD), Healthy controls / % binders, Type 1 diabetes: Study cohort 1; for % binders, Type 1 diabetes: cut-off = mean of healthy controls to Nt-INSP plus 3 SEM; for Mean ± SEM (absorbance, OD), Type 1 diabetes: Study cohort 1 sera; for Antibody reactivity of serum samples (in words): ELISA; for type 1 diabetes binders (IgG autoantibody reactivity): Study cohort 2, N = 18. How it is done: ELISA for autoantibody detection. The ELISA analysis of Nt-INS and oxPTM-INS autoantibodies was performed as previously described [18](detailed in ESM methods, ELISA assay for antibody detection).
Statistical analyses. Statistical analyses were performed using Prism Software 9.0 (GraphPad, San Diego, CA, USA). Cut-off points of positivity (binders) in the antibody ELISA for each peptide were defined by the mean of optical absorbance (O.D) of healthy controls to the corresponding Nt-INSP plus three times the standard error of the mean (SEM). Specificity and sensitivity were evaluated by receiver operating characteristic (ROC) curve analysis. Area under the curve (AUC) is reported as absolute value and was tested for equality according to DeLong et al. Differences in antibody levels and T-cell stimulation indices (SI) between groups were tested by the One way ANOVA or Student's t-tests as appropriate. Correlation analyses were tested by Pearson or Spearman's test, as appropriate. Categorical analyses were performed by Chi-square or McNemar's tests, as appropriate. For each set of experiments, p values were adjusted for multiple comparison using the Holm-Sidak's test. Hierarchical cluster and Principal Component Analysis (PCA) was done using Clustvis software (https://biit.cs.ut.ee/clustvis/) and Prism Software 9.0, respectively.
Antibody reactivity of type 1 diabetes serum against the candidate oxPTM-INSP. Identified peptide candidates were synthesised and exposed to either HOCl or ^●OH to generate oxPTM-INSPs that were first assessed by TOF-MS/ES+TIC to confirm modification (FIG. 17). Antibody response against native INSPs (Nt-INSPs) and oxPTM-INSPs was evaluated by ELISA using sera from Study cohort 1.
ESM Methods ELISA assay for antibody detection. The ELISA analysis of native (Nt-INS) and modified insulin (oxPTM-INS) was performed as previously described. Briefly, the ELISA plate was coated overnight at 4° C. with 100 μl per well of modified or native insulin in 0.05 M carbonate/bicarbonate buffer pH 9.6 at 10 μg/ml. The next day, the plates were washed 3 times with 0.1% Tween PBS, followed by blocking for 2 hours at room temperature with 200 μl per well of 5% BSA in 0.1% Tween PBS. After washing, 100 μl of 1:200-diluted serum samples in 5% BSA-0.1% Tween PBS were added for additional 2 hours incubation. ELISA plates were then washed 3 times with 0.1% Tween PBS followed by probing with anti-human IgG horse radish peroxidase conjugated (HRP, Sigma) at 1:1,000 dilution in 5% BSA-0.1% Tween PBS for another 1.5 hours incubation. The ELISA plates were washed, and 100 μg/ml TMB substrate in 0.1M sodium acetate pH 6.0 plus 2 μl/10 ml of H2O2, were added. Subsequently, the reaction was stopped with 20% v/v sulphuric acid. The optical density (O.D.) was measured at 450 nm using a GENios plate reader and Magellan software (TECAN, Dorset, UK).
On the technique in general: In an ELISA, binding on a coated surface is turned into a signal by an enzyme label.

In assay [2] the test system is CD8+ T-cells (PBMCs). Put plainly: In vitro peptide stimulation and T-cell proliferation assay, CD8+. It is filed as cell-based, human. An excerpt:
(§1) In vitro peptide stimulation and T-cell proliferation assay. Peripheral blood mononuclear cells (PBMCs) were freshly isolated from type 1 diabetes and healthy individuals using Ficoll-Hypaque density gradient centrifugation. PBMCs were labelled with the fluorescent dye CellTrace Violet (Invitrogen, Thermo Fisher Scientific) and cultured (2×10^5 cells/well) in round-bottom 96-well plates (Falcon, Becton Dickinson) with RPMI-1640 medium (Gibco, Thermo Fisher Scientific) supplemented with 5% autologous plasma in the presence or not of insulin peptides (20 μg/ml); PPD (10 μg/ml) and anti-CD3 (0.1 μg/ml; clone OKT3) were used as positive control. Two scrambled peptides: […] (SEQ ID NO: 17), […] (SEQ ID NO: 18), and the Exendin 9-39 fragment were used as negative controls. After 7 days, PBMCs were stained with PE-Cy7 anti-CD8 (clone RPA-T8, BD Pharmingen) and FITC anti-CD3 (clone UCHT1, BD Pharmingen). Samples were analysed by using a FACSCanto II (BD Bioscience) to evaluate T-cell proliferation measured as CellTrace Violet dilution. Cytofluorimetric analyses were performed using FlowJo Software (FlowJo, LLC). The results were given as stimulation index (SI), calculated as percentage of stimulated T-cell subset proliferation/percentage of unstimulated T-cell subset proliferation. Assay for detection of peptide specific T cells subsets was done as previously described (detailed in ESM methods, Assay for detection of peptide specific T cells)
(§2) T-cell stimulation with oxPTM-INSPs. To evaluate the immune cell response against the oxPTM-INSPs, we performed CD4+ and CD8+ T cells proliferation experiments using freshly isolated PBMCs (Study cohort 2, Table 1). Response was calculated as stimulatory index (SI) over unstimulated T-cells.

Assay [3] relates to CD4+ T-cells (PBMCs). The experiment in a line: In vitro peptide stimulation and T-cell proliferation assay, CD4+. The format is cell-based, human.
Source text: as §1, §2

For the substance “INSP-3 oxPTM-HOCI: INSP-3 peptide oxidised in house by HOCl (SLYQLENYCN; not fully specified (N-terminus); also: oxidised by HOCl, modified residues not defined)”, in assay [1] (in house modifications), the “% binders, Healthy controls” value stood at 40%; the “Mean ± SEM (absorbance, OD), Healthy controls” value (from here on “Mean ± SEM … Healthy controls”) is reported as 0.452 ± 0.048; the “% binders, Type 1 diabetes” value is reported as 53%; the “Mean ± SEM (absorbance, OD), Type 1 diabetes” value (from here on “Mean ± SEM … Type 1 diabetes”) was 0.473 ± 0.037.

With “INSP-6 oxPTM-•OH: INSP-6 peptide oxidised in house by hydroxyl radical (ERGFFYTPKT; not fully specified (N-terminus); also: oxidised by hydroxyl radical, modified residues not defined)”, in assay [1] (in house modifications), the “% binders, Healthy controls” value came to 12%; the “Mean ± SEM … Healthy controls” value was 0.280 ± 0.020; the “% binders, Type 1 diabetes” value worked out at 83%; the “Mean ± SEM … Type 1 diabetes” value came out at 0.461 ± 0.013. The “Mean ± SEM … Type 1 diabetes” value in assay [1] (in house modifications, listed as ●OH-modified oxPTM-INSP-6) is on record as 0.461±0.013.

For the substance “SL-DOPA-QLEN-DOPA-Cysteate-N (SL[Dopa]QLEN[Dopa][Cya]N) [in silico designed oxPTM-INSP-3 derivative]”, in assay [2] (Controls (N = 11)), the “CD8+ T-cell response, subjects with SI > 1 (%)” value is reported as “(18.2%)”; the “CD8+ T-cell response, subjects with SI > 3 (%)” value is recorded as “(9.10%)”; the “CD8+ T-cell response, subjects with SI > 5 (%)” value was “(0.0%)”; the “CD8+ T-cell response, subjects with SI > 10 (%)” value is given as “(0.0%)”. In addition, in assay [2] (Type 1 diabetes (N = 18)), the “CD8+ T-cell response, subjects with SI > 1 (%)” value was “(33.3%)”; the “CD8+ T-cell response, subjects with SI > 3 (%)” value was “(16.7%)”; the “CD8+ T-cell response, subjects with SI > 5 (%)” value is reported as “(5.5%)”; the “CD8+ T-cell response, subjects with SI > 10 (%)” value is “(5.6%)”. In assay [1] (in silico modifications), the “% binders, Healthy controls” value was 30%; the “Mean ± SEM … Healthy controls” value is listed as 0.169 ± 0.008; the “% binders, Type 1 diabetes” value is given as 57%; the “Mean ± SEM … Type 1 diabetes” value was 0.256 ± 0.018. For the same substance, in assay [3] (Controls (N = 11)), the “CD4+ T-cell response, subjects with SI > 1 (%)” value is “(27.3%)”; the “CD4+ T-cell response, subjects with SI > 3 (%)” value is “(0.0%)”; the “CD4+ T-cell response, subjects with SI > 5 (%)” value was “(0.0%)”; the “CD4+ T-cell response, subjects with SI > 10 (%)” value is listed as “(0.0%)”. Besides, in assay [3] (Type 1 diabetes (N = 18)), the “CD4+ T-cell response, subjects with SI > 1 (%)” value is listed as “(66.7%)”; the “CD4+ T-cell response, subjects with SI > 3 (%)” value is reported as “(5.6%)”; the “CD4+ T-cell response, subjects with SI > 5 (%)” value is “(0.0%)”; the “CD4+ T-cell response, subjects with SI > 10 (%)” value was “(0.0%)”.

Consider “INSP-4 oxPTM-HOCI: INSP-4 peptide oxidised in house by HOCl (LVEALYLVCGERGFFYTPKT; also: oxidised by HOCl, modified residues not defined)”, for which, in assay [1] (in house modifications), the “% binders, Healthy controls” value is 27%; the “Mean ± SEM … Healthy controls” value amounted to 0.296 ± 0.022; the “% binders, Type 1 diabetes” value is given as 66%; the “Mean ± SEM … Type 1 diabetes” value is reported as 0.563 ± 0.053. For the same substance, the “Mean ± SEM … Type 1 diabetes” value in assay [1] (in house modifications, listed as HOCl-modified oxPTM-INSP-4) amounted to 0.563±0.053.

With LVEALYLVCG, the “Antibody reactivity of serum samples (in words)” value (from here on “Antibody reactivity … (in words)”) in assay [1] is “No reactivity”.

For “INSP-4 oxPTM-•OH: INSP-4 peptide oxidised in house by hydroxyl radical (LVEALYLVCGERGFFYTPKT; also: oxidised by hydroxyl radical, modified residues not defined)”, in assay [1] (in house modifications), the “% binders, Healthy controls” value is 27%; the “Mean ± SEM … Healthy controls” value is on record as 0.344 ± 0.022; the “% binders, Type 1 diabetes” value was 58%; the “Mean ± SEM … Type 1 diabetes” value came to 0.539 ± 0.068.

With “INSP-6 oxPTM-HOCI: INSP-6 peptide oxidised in house by HOCl (ERGFFYTPKT; not fully specified (N-terminus); also: oxidised by HOCl, modified residues not defined)”, in assay [1] (in house modifications), the “% binders, Healthy controls” value is listed as 25%; the “Mean ± SEM … Healthy controls” value amounted to 0.312 ± 0.019; the “% binders, Type 1 diabetes” value came to 43%; the “Mean ± SEM … Type 1 diabetes” value stood at 0.391 ± 0.013.

Consider “Nt-INS: native human recombinant insulin”, for which, in assay [1], the “type 1 diabetes binders (IgG autoantibody reactivity)” value was 33.3%.

Take “INSP-3 oxPTM-•OH: INSP-3 peptide oxidised in house by hydroxyl radical (SLYQLENYCN; not fully specified (N-terminus); also: oxidised by hydroxyl radical, modified residues not defined)”: in assay [1] (in house modifications), the “% binders, Healthy controls” value turned out to be 86%; the “Mean ± SEM … Healthy controls” value turned out to be 0.617 ± 0.042; the “% binders, Type 1 diabetes” value is recorded as 86%; the “Mean ± SEM … Type 1 diabetes” value is 0.667 ± 0.044. The “Mean ± SEM … Type 1 diabetes” value in assay [1] (in house modifications, listed as ●OH-modified oxPTM-INSP-3) is reported as 0.667±0.044.

In the case of “YLVCGERGFF [INSP-1, insulin B:16-25 peptide]”, in assay [1], the “Antibody reactivity … (in words)” value is listed as “No significant reactivity”.

Turning to “ERGFFYTPKTR (Ac-ERGFFYTPKTR) [INSP-6 with C-terminal arginine]”, in assay [2] (Controls (N = 11)), the “CD8+ T-cell response, subjects with SI > 1 (%)” value is “(27.3%)”; the “CD8+ T-cell response, subjects with SI > 3 (%)” value is listed as “(0.0%)”; the “CD8+ T-cell response, subjects with SI > 5 (%)” value was “(0.0%)”; the “CD8+ T-cell response, subjects with SI > 10 (%)” value is recorded as “(0.0%)”. Besides, in assay [2] (Type 1 diabetes (N = 18)), the “CD8+ T-cell response, subjects with SI > 1 (%)” value is listed as “(44.4%)”; the “CD8+ T-cell response, subjects with SI > 3 (%)” value is “(16.7%)”; the “CD8+ T-cell response, subjects with SI > 5 (%)” value is reported as “(16.7%)”; the “CD8+ T-cell response, subjects with SI > 10 (%)” value was “(16.7%)”. Moreover, in assay [3] (Controls (N = 11)), the “CD4+ T-cell response, subjects with SI > 1 (%)” value is recorded as “(36.4%)”; the “CD4+ T-cell response, subjects with SI > 3 (%)” value was “(0.0%)”; the “CD4+ T-cell response, subjects with SI > 5 (%)” value is given as “(0.0%)”; the “CD4+ T-cell response, subjects with SI > 10 (%)” value is given as “(0.0%)”. Moreover, in assay [3] (Type 1 diabetes (N = 18)), the “CD4+ T-cell response, subjects with SI > 1 (%)” value was “(55.6%)”; the “CD4+ T-cell response, subjects with SI > 3 (%)” value is “(27.8%)”; the “CD4+ T-cell response, subjects with SI > 5 (%)” value is given as “(21.1%)”; the “CD4+ T-cell response, subjects with SI > 10 (%)” value is “(11.1%)”.

Regarding “LVEALYLVCGER [INSP-2, insulin B:11-22 peptide]”, the “Antibody reactivity … (in words)” value in assay [1] is listed as “No significant reactivity”.

Consider FVNQHLC [INSP-5, insulin B:1-7 peptide], for which the “Antibody reactivity … (in words)” value in assay [1] is given as “No significant reactivity”.

On to “^●OH-INS: insulin modified by hydroxyl radical”, for which, in assay [1], the “type 1 diabetes binders (IgG autoantibody reactivity)” value is 50%.
